Assay [1] has as its system BaF3. Put plainly: Induction of apoptosis in mouse BaF3 cells harbouring CCDC6-RET G810C assessed as early apoptotic cells measured at 300 nM for 48 hrs by Annexin V-FITC staining based Guava easyCyte flow cytometric analysis (reference value: 6.10 %). It is filed as functional.
Assay [2] has as its system BaF3. Put plainly: Induction of apoptosis in mouse BaF3 cells harbouring CCDC6-RET G810R assessed as early apoptotic cells measured at 33.3 nM for 48 hrs by Annexin V-FITC staining based Guava easyCyte flow cytometric analysis (reference value: 6.46 %). The class given is functional.
The test system of assay [3] is BaF3. Put plainly: Induction of apoptosis in mouse BaF3 cells harbouring CCDC6-RET G810C assessed as late apoptotic cells measured at 33.3 nM for 48 hrs by Annexin V-FITC staining based Guava easyCyte flow cytometric analysis (reference value: 2.65 %). It is filed as functional.
Assay [4] relates to BaF3. Put plainly: Induction of apoptosis in mouse BaF3 cells harbouring CCDC6-RET G810R assessed as early apoptotic cells measured at 300 nM for 48 hrs by Annexin V-FITC staining based Guava easyCyte flow cytometric analysis (reference value: 6.46 %). It is filed as functional.
The test system of assay [5] is BaF3. Put plainly: Antiproliferative activity against mouse BaF3 cells expressing rearranged during transfection kinase V804L-KIF5B incubated for 74 to 76 hrs by cell counting kit 8 method.
The subject of assay [6] is BaF3. Put plainly: Induction of apoptosis in mouse BaF3 cells harbouring CCDC6-RET G810C assessed as early apoptotic cells measured at 33.3 nM for 48 hrs by Annexin V-FITC staining based Guava easyCyte flow cytometric analysis (reference value: 6.10 %). The class given is functional.
Assay [7] has as its system BaF3. Put plainly: Induction of apoptosis in mouse BaF3 cells harbouring CCDC6-RET G810R assessed as late apoptotic cells measured at 33.3 nM for 48 hrs by Annexin V-FITC staining based Guava easyCyte flow cytometric analysis (reference value: 3.4 %). It is filed as functional.
Assay [8] has as its system BaF3. Put plainly: Antitumor activity against mouse BaF3 cells harbouring CCDC6-RET G810C cells xenografted in CB17-SCID mouse assessed as reduction in tumor growth administered intraperitoneally qd administered for 12 days measured every 2 days. It is filed as functional, cell-based. The following applies: dose 10-30 mg/kg, route ip, time 12.0 day.
The test system of assay [9] is BaF3. Put plainly: Antiproliferative activity against mouse BaF3 cells expressing wildtype rearranged during transfection kinase-KIF5B incubated for 74 to 76 hrs by cell counting kit 8 method.
The test system of assay [10] is BaF3. Put plainly: Induction of apoptosis in mouse BaF3 cells harbouring CCDC6-RET G810C assessed as viable cells measured at 300 nM for 48 hrs by Annexin V-FITC staining based Guava easyCyte flow cytometric analysis (reference value: 90.90 %). The class given is functional. The following applies: read-out: Activity.
The subject of assay [11] is BaF3. Put plainly: Antitumor activity against mouse BaF3 cells harbouring CCDC6-RET G810C cells xenografted in CB17-SCID mouse assessed as reduction in tumor growth at 30 mg/kg ip qd administered for 12 days measured every 2 days relative to control. The class given is functional. The following applies: BaF3, 288 h, time 12 day, read-out: TGI.
The subject of assay [12] is BaF3. Put plainly: Antiproliferative activity against mouse BaF3 cells expressing rearranged during transfection kinase G810C-CCDC6 incubated for 74 to 76 hrs by cell counting kit 8 method.
Assay [13] relates to BaF3. The following applies: Mus musculus, dose 100.0 nM, time 4.0 hrs.
The subject of assay [14] is BaF3. Put plainly: Induction of apoptosis in mouse BaF3 cells harbouring CCDC6-RET G810R assessed as necrotic cells measured at 33.3 nM for 48 hrs by Annexin V-FITC staining based Guava easyCyte flow cytometric analysis (reference value: 0.64 %). It is filed as functional.
In assay [15] the test system is BaF3. Put plainly: Induction of apoptosis in mouse BaF3 cells harbouring CCDC6-RET G810R assessed as necrotic cells measured at 100 nM for 48 hrs by Annexin V-FITC staining based Guava easyCyte flow cytometric analysis (reference value: 0.64 %). The class given is functional.
Assay [16] concerns BaF3. Put plainly: Antiproliferative activity against mouse BaF3 cells expressing rearranged during transfection kinase V804L-G810R incubated for 74 to 76 hrs by cell counting kit 8 method.

Data on one compound can be found in ChEMBL document CHEMBL5247627, “1-Methyl-3-((4-(quinolin-4-yloxy)phenyl)amino)-1H-pyrazole-4-carboxamide derivatives as new rearranged during Transfection (RET) kinase inhibitors capable of suppressing resistant mutants in solvent-front regions” (Eur J Med Chem, 2022).

The structures appear in SMILES notation. Active and inactive are the calls of the source. The calls are words filed in the database; no cut-off is given here.

In the case of `COc1cc2nccc(Oc3ccc(Nc4nn(C)cc4C(=O)NC45CC6CC(CC(C6)C4)C5)c(F)c3)c2cc1C(N)=O`, the Activity in the assay on BaF3 [1] is listed as 53.4%; with BaF3 [2] it was 6.47%; in the assay with BaF3 [3], 1.5%; in the assay on BaF3 [4], 32.67%; in the assay on BaF3 [6], 7.39%; in the assay with BaF3 [7] it was 2.25%. Moreover, the Activity result is “Dose-Dependent Effect” with BaF3 [8], 0.17% in the assay with BaF3 [14] and 0.23% in the assay on BaF3 [15]. Besides, the IC50 stood at 47.3 nM in the assay with BaF3 [5], 6.1 nM in the assay on BaF3 [9], 15.4 nM in the assay with BaF3 [12] and 120 nM with BaF3 [16]. For the same compound, the viability at 0.3 µM in the assay on BaF3 [10] was found to be 43.1%. Further, the inhibition in vivo at 30 mg/kg in the assay on BaF3 [11] was 66.9%. Also, the inhibition entry in the assay on BaF3 [13] is “Active”.
